Experimental findings from patent US10308618B2, “Blue light cutting optical material comprising a benzotriazole UV absorber” (ESSILOR INTERNATIONAL, priority 2016, dated 2019) are described below.

A short description of data set [1]: Transmission spectra: transmittance and light cut-off wavelength. The class given is physicochemical. The text has this: The light cut-off wavelength of the optical material is preferably higher than or equal to 400 nm, more preferably higher than or equal to 405 nm, and even more preferably higher than or equal to 410 nm. It is preferably lower than 465 nm, more preferably lower than 450 nm. In the present disclosure, the light cut-off wavelength is defined as the wavelength below which light transmission becomes lower than 1%. In other words, it is the highest wavelength for which the transmittance is lower than 1%. The higher the light cut-off wavelength, the better the blue light cutting properties.
In the present description, unless otherwise specified, optical transmittances/transmissions are measured at the center of the optical article for a thickness ranging from 0.7 to 2 mm, preferably 2 mm, at normal incidence. As used herein, optical transmittance within a wavelength range is an average of light transmitted within this range and is not weighted according to the sensitivity of the eye at each wavelength of the range, unless otherwise specified. Last, optical transmittance is measured for optical articles having no coatings, in particular no antireflective coatings.
The light cut-off wavelength was determined from the transmission spectra, which are shown on FIGS. 1 and 2. […]

A short description of data set [2]: Solubilization of the benzotriazole UV absorber in the ISO monomer. The note with it: in isocyanate monomer, compared with comparative benzotriazole VII. The class given is physicochemical. On the procedure:
For polythiourethane matrix, solubility during processing and compatibility of inventive and comparative benzotriazoles were assessed in two stages. First, initial solubilization of the benzotriazole UV absorber in the isocyanate monomer was assessed.

Regarding “octyl-3-[3-tert-butyl-4-hydroxy-5-(2H-benzotriazol-2-yl)-phenyl] propionate branched and linear alkyl esters [Eversorb® 82]”, the “optical transmittance for each light wavelength ranging from 280 to 400 nm” value in data set [1] (2-mm thick layer of material) is recorded as “lower than 1%”. In data set [1] (2 mm thick material, 430 nm), the “T (%) at 430 nm” value was “higher than 65%”. For `CCCCCCCCOC(=O)CCc1cc(-n2nc3ccc(Cl)cc3n2)c(O)c(C(C)(C)C)c1` [Benzotriazole IV, n-octyl-3-[3-tert-butyl-4-hydroxy-5-(5-chloro-2H-benzotriazol-2-yl)phenyl] propionate], the “Dissolution properties” value in data set [2] is listed as “improved dissolution properties”.
